The text below walks through data of the METLIN SMRT retention time set (Domingo-Almenara et al. 2019).

This data set can be described thus: gradient 5% acetonitrile 3 min, to 50% in 2 min, to 85% in 15 min, held 3 min, 100 µL/min. The note with it: column: Zorbax Extend-C18 2.1 x 50 mm; eluents: water / acetonitrile, 0.1% formic acid. Summed up: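 Using water and acetonitrile that each contained 0.1% formic acid, mixtures of ~100 pure standards were separated at 100 μL/min on a Zorbax Extend-C18 column (2.1 × 50 mm, 1.8 μm). The HPLC fed a quadrupole time-of-flight mass spectrometer working in positive and negative ionization mode, with dead and dwell volumes of 40 μL and 900 μL. Data were acquired over 3 months. Retention time was read from computationally picked adduct peaks after manual inspection of each.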
Molecule `N#Cc1cccc(C(=O)NC2CCN(c3cc(-c4cccs4)[nH]n3)C2)c1` (centres undefined) returned an RP-LC retention time of 701 s.
On to `Cc1cc(NC(=O)CSc2nncn2C)no1`, for which the RP-LC retention time came out at 554 s.
Take `CCOC(=O)c1c(S(=O)(=O)NCc2ccccc2F)n[nH]c1C`: the RP-LC retention time is 728 s.
As to `COc1ccc(CN2C[C@@H](CO)[C@H](c3ccncc3)C2)cc1OC`, the RP-LC retention time is 592 s.
`COc1ccccc1NC(=O)Nc1ccc2nc3n(c(=O)c2c1)CCC3` had an RP-LC retention time of 698 s.
Take `COc1ccc2nc(C(=O)N3CCN(c4ccc(F)cc4)CC3)cn2n1`: the RP-LC retention time was determined as 731 s.
On to `CCOc1ccc(-c2nc(Cn3cnc4nc5c(cc4c3=O)CCCC5)c(C)o2)cc1`, for which the RP-LC retention time came out at 870 s.
Then `Cc1cc(Cl)ccc1OCc1nc2c3ccccc3ncn2n1`, with 1060 s; and `CCOc1ccc(S(=O)(=O)N2CCCC2C(=O)Nc2nnc(CC)s2)cc1` (centres undefined), with 805 s; and `Cc1nn(C)c(C)c1S(=O)(=O)N1CCc2c(c(-c3nnc(-c4ccc(F)cc4)o3)nn2C)C1`, with 805 s.
`O=C(c1ccccc1)N1CCC(n2c(-c3ccco3)nc3cccnc32)C1` (centres undefined) returned an RP-LC retention time of 716 s.
For `OCC1O[C@H](O)C(Cl)C(O)C1O` (some centres undefined), the RP-LC retention time is 658 s.
`CC1(c2ccccc2)CC(C)(C)N(C(=O)CN2CCOCC2)c2ccccc21` (centres undefined) showed an RP-LC retention time of 744 s.
`COC(=O)c1cc(Cl)ccc1NC(=O)COc1nc(C)nc2ccccc12`: the RP-LC retention time is 897 s.
Then `CCOC(=O)C1CCCN(c2cc(-n3nc(C)cc3C)ncn2)C1` (centres undefined), with 1040 s; and `COc1cccc(S(=O)(=O)N2CCc3c(c(-c4nnc(-c5ccc(F)cc5)o4)nn3C)C2)c1`, with 942 s.
Then `COc1ccc(NC(=O)CN2C(=O)C(C)(C)c3ccccc32)cc1`, with 826 s.
Then `Cc1ccc(C(=O)N2CCc3[nH]nc(C(=O)N(C)C)c3C2)cc1C`, with 657 s; and `O=C(c1ccccc1Cl)N1CCC2(CC1)OCC(C(=O)N1CCOCC1)N2C(=O)c1ccccc1` (centres undefined), with 656 s; and `O=C(Nc1nc(-c2ccccc2Cl)cs1)c1cccnc1`, with 858 s.
Molecule `COc1ccc(NC(=O)Cn2cnc3nc(N4CCCC(C(=O)NC5CC5)C4)sc3c2=O)cc1` (centres undefined) returned an RP-LC retention time of 681 s.
Then `O=C(c1nc(C2CC2)nc2c1OCCO2)N1CCCC1c1cccnc1` (centres undefined), with 642 s; and `COC(=O)c1cc2c(=O)n(-c3cccc(Cl)c3Cl)ccc2nc1C`, with 915 s; and `COc1ccc(CN2CN=C(Nc3nc(C)c4cc(OC)ccc4n3)NC2)cc1`, with 748 s.
Then `CC1CCN(c2ccc(-c3noc(CN4C(=O)COc5ccccc54)n3)cc2)CC1`, with 1260 s.
Then `COc1ccc(OC)c(CNC(=O)c2c(C)oc3c2C2=NCCN2C=N3)c1`, with 638 s; and `CSc1cccc(NC(=O)Cn2nc3n(c2=O)CCCCC3)c1`, with 707 s; and `CC(=O)Nc1ccc(C(=O)NC2CCN(c3cc(-c4ccccc4)[nH]n3)C2)cc1` (centres undefined), with 626 s.
As to `Cc1ccc(CN2C[C@@H]3C(=O)N(Cc4ccc5c(c4)OCO5)C(=O)[C@@H]3C2)c(C)c1`, the RP-LC retention time is 857 s.
Molecule `Cc1ccc(-c2noc(C3CCCN3S(=O)(=O)c3ccc4c(c3)CCC4)n2)cc1` (centres undefined) yielded an RP-LC retention time of 1280 s.
Then `CC(C)c1ccc(NC(=O)CN2C(=O)CC(C)(C)S(=O)(=O)c3ccccc32)cc1`, with 898 s; and `CCCS(=O)(=O)N1CC(=O)N(c2ccc(Cl)cc2C)C(C)(C(=O)NC2CCCCC2)C1` (centres undefined), with 1040 s; and `CC(C)NC(=O)c1ccc(OCC2CCCN(C(=O)c3ccccc3)C2)cc1` (centres undefined), with 825 s.
With `CC(NC(=O)C(=O)N1CCCCC1)C(c1cccs1)N1CCN(c2ccc(F)cc2)CC1` (centres undefined), the RP-LC retention time came to 760 s.
Then `NC(=O)[C@@H]1C[C@H](Oc2cccnc2)CN1C(=O)Cn1c(=O)oc2ccccc21`, with 564 s; and `CCn1cc(-c2nc(CC(=O)Nc3ccc(C#N)cc3)cs2)c2cccnc21`, with 879 s.
Then `COc1ccc(NC2CC(=O)N(c3ccccc3Cl)C2=O)cc1` (centres undefined), with 627 s; and `CCn1cc(C(=O)NCCC2=CCCCC2)c2nn(-c3ccccc3)c(=O)c-2c1`, with 1020 s; and `CCNc1cc(N2CCCC(CCC(=O)NCCN3CCCCC3)C2)ncn1` (centres undefined), with 551 s.
Then `Cc1cn2c(CCC(=O)NCCn3nc(-c4ccco4)ccc3=O)csc2n1`, with 539 s; and `COc1ccc(N2CCN(c3cc(SCC(=O)Nc4ccc(C)cc4C)ncn3)CC2)cc1`, with 1020 s; and `CC(C)(C)c1ccc(-c2nc3ccccc3[nH]2)cc1`, with 702 s.
`CCN1C(=O)c2cccnc2Sc2cc(NC(=O)c3ccc(C(C)C)cc3)ccc21` showed an RP-LC retention time of 998 s.
Then `Cn1cc(CCNC(=O)NCc2ccco2)c2cccnc21`, with 593 s; and `Cc1ccc(-n2c(N3CCCC(C(=O)NCCN4CCCCC4)C3)nc3ccsc3c2=O)cc1` (centres undefined), with 617 s; and `CCc1ccc(-c2noc(CN3C(=O)COc4ccccc43)n2)cc1`, with 1120 s.
Then `CC1=NS(=O)(=O)N(C)C=C1C(=O)OCc1nc(-c2ccccc2F)no1`, with 895 s; and `O=S(=O)(c1cccc2nsnc12)N1CCCC(Cc2noc(C3CC3)n2)C1` (centres undefined), with 923 s; and `COC(=O)c1ccsc1NC(=O)c1ccccc1Cl`, with 897 s.
As for `CCOc1ccc(C(=O)NC(C(=O)Nc2nc3ccccc3[nH]2)C(C)CC)cc1OCC` (centres undefined), the RP-LC retention time turned out to be 792 s.
Consider `CCOC(=O)NCC1CCN(Cc2ccccc2SC)CC1`, for which the RP-LC retention time was 566 s.
Then `O=S(=O)(c1ccc(F)c(F)c1)N1CCCC(Cn2c(C3CC3)nc3cccnc32)C1` (centres undefined), with 782 s; and `COc1nc2ccccc2nc1N1CCCC(C(=O)Nc2cccc(F)c2)C1` (centres undefined), with 1170 s.
Then `CNC(=O)c1cc(C)nc2ccc(F)cc12`, with 580 s.
Then `CCCC(NC(=O)c1ccccn1)C(=O)Nc1nc2ccccc2[nH]1` (centres undefined), with 670 s.
As for `O=C(CN1C(=O)CN(C(=O)NCc2ccccc2)c2ccccc21)NC1CCCc2ccccc21` (centres undefined), the RP-LC retention time is 892 s.
Then `O=C(NCC(c1ccsc1)N1CCc2ccccc2C1)C(=O)NC1CCCC1` (centres undefined), with 592 s; and `c1cc(CN2CCN(c3cnn4c(C5CC5)nnc4c3)CC2)cs1`, with 558 s; and `CCn1c(N2CCCC(C(=O)NCc3ccco3)C2)cc(=O)n(C)c1=O` (centres undefined), with 731 s.
`CCOC(=O)c1c(S(=O)(=O)N2CCC(C(=O)N3CCc4ccccc43)CC2)c(C)n(C)c1C` yielded an RP-LC retention time of 913 s.
Then `CC(C)(C)c1ccc(-c2nc(C3CC(=O)N(c4ccc(F)c(Cl)c4)C3)no2)cc1` (centres undefined), with 1360 s.
Regarding `Cn1cc(-c2nc(C(=O)N3CCN(c4ccccc4F)CC3)cs2)c2cccnc21`, the RP-LC retention time was found to be 956 s.
Then `Cc1nn(CC(=O)NCCc2ccco2)c(=O)c2nn(-c3ccccc3)c(C)c12`, with 758 s; and `CCCN1C(=O)c2cc(S(=O)(=O)Nc3ccc(F)c(C)c3)ccc2Oc2cccnc21`, with 1100 s.
Then `O=C(c1ccc(F)cc1)N1CCN(c2cnn3c(C4CC4)nnc3c2)CC1`, with 636 s; and `CCOC(=O)c1c(C)oc2nc(C)nc(N3CCc4cc(OC)c(OC)cc4C3C)c12` (centres undefined), with 1060 s.
With `O=C(Nc1cnc(-c2ccccc2)nc1)c1ccc(Cl)cc1`, the RP-LC retention time was 1050 s.
Then `Cc1ccc(-c2noc(-c3ccc(N4CCN(c5ncccn5)CC4)nc3)n2)cc1`, with 1280 s; and `CCOc1ccc(C(=O)Nc2cc(-c3cn4cccnc4n3)ccc2OC)cc1`, with 723 s; and `Cn1nc(C(=O)N2CCCCC2)c2c1CCN(C(=O)CCC(=O)NCCN1CCCC1)C2`, with 578 s.
Consider `CCOC(=O)c1cc([N+](=O)[O-])sc1NC(=O)CCCS(=O)(=O)c1ccc(F)cc1`, for which the RP-LC retention time is 965 s.
Then `Cc1cc(C)c2c(-n3cccc3)nn(Cc3ccc(C(=O)NCc4ccco4)cc3)c2n1`, with 1060 s; and `CCC(=O)Nc1ccc(C2(C(=O)NCC3CC3)CCCCC2)cc1`, with 825 s; and `O=c1c2sccc2n(Cc2nc(-c3ccccc3)no2)c(=O)n1-c1ccccc1F`, with 969 s.
Then `Cc1ccnc(Nc2nc(-c3ccc(C)cc3C)cs2)c1`, with 859 s; and `COC(=O)c1ccc2c(=O)n(-c3ccccc3)c(N3CCC(C(N)=O)CC3)nc2c1`, with 693 s; and `COc1ccc(CN2CC3(CCN(S(=O)(=O)c4c(C)noc4C)CC3)C2=O)cc1`, with 842 s.
Then `O=C(C1CCCN(c2nnc3ccc(Cl)cn23)C1)N1CCN(C2CCCCC2)CC1` (centres undefined), with 525 s.
As for `O=C(Nc1cccc(Cl)c1)C1CCCN(C(=O)Cc2cccc3ccccc23)C1` (centres undefined), the RP-LC retention time came to 1070 s.
